The nature of data set [1]: Readout interference test: compound added after the enzymatic reaction ran to completion. Conditions: normalized to the DMSO control; compound added after 1 h Nsp15/substrate reaction.
Data set [2] addresses T1, Nsp15 (Severe acute respiratory syndrome coronavirus 2, UniProt P0DTD1). The conditions noted are these: measured particle size.
Data set [3] concerns the target T2, SARS‐CoV‐2 Nsp15 (Severe acute respiratory syndrome coronavirus 2, UniProt P0DTD1). The experiment in a line: biochemical. The conditions noted are these: for Inhibition % +L-Cys 10 µM / inhibition at 10 µM: L-cysteine buffer; for inhibition at 10 µM: read-out: Inhibition % +L-Cys 10 µM; for loss of the inhibition potency in L‐cysteine buffer: 1 mM L‐cysteine buffer compared with DTT buffer. The format is biochemical.

For data set [4], the target named is T2, SARS‐CoV‐2 Nsp15. The experiment in a line: biochemical.
Data set [5] addresses T1, Nsp15.
The subject of data set [6] is SARS‐CoV Nsp15. The conditions noted are these: previously reported; ref Ortiz‐Alcantara et al., 2010; read-out: inhibition potency of SARS‐CoV Nsp15; cited from earlier work.
Data set [7] has as its system Vero‐E6 cells. The conditions noted are these: cited from earlier work.
Data set [8] deals with SARS‐CoV‐2 in Vero‐E6 cells. Also on record: method as in Zaliani et al., 2022. The conditions noted are these: ref Zaliani et al., 2022, read-out: EC50 cytopathic (CPE) assay; cited from earlier work. (In general: Damage to the host cells serves as the signal in cytopathic effect assays.)
Details of data set [9]: method as in Zhao et al., 2021. Conditions: ref Zhao et al., 2021; cited from earlier work.
Setting [10] is: 1 mM L-cysteine buffer, confidence interval in brackets, read-out: IC50 + L‐Cys (μM) (CI in μM).
The mark [11] stands for this setting: 1 mM DTT buffer, confidence interval in brackets, read-out: IC50 + DTT (μM) (CI in μM).
Setting [12] is: DTT buffer (Table S1), read-out: IC50 +DTT.
Setting [13] is: hit confirmation, 10 µM, DTT buffer.
The mark [14] stands for this setting: primary screen, 10 µM (Table S1).
Where [15] appears, read: primary screen, 10 μM compound, 1 mM DTT buffer, normalized to 50 μM Congo red (100%) and DMSO (0%).
[16] abbreviates: hit confirmation, 10 µM, DTT buffer, read-out: HC inhibition % +DTT 10 µM.
Setting [17] is: primary screen, 10 µM (Table S1), read-out: PS Inhibition % 10 µM.
The mark [18] stands for this setting: primary screen, 10 μM compound, 1 mM DTT buffer, normalized to 50 μM Congo red (100%) and DMSO (0%), read-out: PS inhibition % 10 μM (single point measurement).
The mark [19] stands for this setting: L-cysteine buffer (Table S1), read-out: IC50 +L-Cys.
Where [20] appears, read: DTT buffer, 30 min pre-incubation, read-out: IC50.

As usually defined, the inhibition is the change of the read-out against control, counted positive when it falls. The CC50 is the concentration at which the toxic effect on the cells reaches its halfway point. Usually EC50 stands for the midpoint of the concentration-response curve.

Read-outs that look alike come from different tables or passages of the source. Where only a bound is given, the exact number is not on record here.

Consider `CC[n+]1c(-c2ccccc2)c2cc(N)ccc2c2ccc(N)cc21` [Homidium bromide], for which the “quenching ratio of the fluorescence signal” value in [1] turned out to be 26.13%.

For the compound `CC[N+](C)(CC)CCC[n+]1c(-c2ccccc2)c2cc(N)ccc2c2ccc(N)cc21.[I-].[I-]` [Propidium‐iodide], in data set [2], the “effect on the hexameric Nsp15 structure (DLS)” value is recorded as “significantly affected the hexameric Nsp15 structure”. In addition, the “Inhibition % +L-Cys 10 µM” value in [3] is 68,98%. In addition, the IC50 in data set [3] (setting [10]) was determined as 9 µM; in data set [4] (setting [11]), 0.9 µM; in data set [4] (setting [12]), 0.95 µM. In data set [4] (setting [13]), the “HC inhibition % +DTT 10 µM” value is on record as 85,94%. Besides, the “PS Inhibition % 10 µM” value in data set [4] (setting [14]) is on record as 83,07%. In addition, the “PS inhibition % 10 μM (single point measurement)” value in [4] (setting [15]) is 83.1%. The “ΔT m°C nDSF” value in [5] was 0.7 °C.

On to `CN(C)CCNc1nc2cc(O)ccc2c2c1C(=O)c1ccccc1-2.Cl.Cl` [TAS‐103 (dihydrochloride), 6‐[2‐(dimethylamino)ethylamino]‐ 3‐hydroxy‐7H‐indeno[2,1‐C]quinolin‐7‐one dihydrochloride], for which the inhibition at 10 µM is -33.9% in [3], 63.6% in data set [4] (setting [16]), 63.4% in data set [4] (setting [17]) and 63.4% in [4] (setting [18]). Moreover, the “loss of the inhibition potency in L‐cysteine buffer” value (shortened to “loss of the inhibition potency”) in [3] is on record as “more than 50%”. The IC50 came to 6.6 µM in data set [4] (setting [11]) and 6.55 µM in data set [4] (setting [12]). In addition, the “ΔT m°C nDSF” value in [5] was 0.6 °C.

For the compound `CN[C@H](CC(C)C)C(=O)N[C@H]1C(=O)N[C@@H](CC(N)=O)C(=O)N[C@H]2C(=O)N[C@H]3C(=O)N[C@H](C(=O)N[C@H](C(=O)O)c4cc(O)cc(O)c4-c4cc3ccc4O)[C@H](O[C@H]3C[C@](C)(N)[C@@H](O)[C@H](C)O3)c3ccc(c(Cl)c3)Oc3cc2cc(c3O[C@@H]2O[C@H](CO)[C@@H](O)[C@H](O)[C@H]2O[C@H]2C[C@](C)(NCc3ccc(-c4ccc(Cl)cc4)cc3)[C@@H](O)[C@H](C)O2)Oc2ccc(cc2Cl)[C@H]1O.O=P(O)(O)O.O=P(O)(O)O` [Oritavancin (diphosphate)], the “Inhibition % +L-Cys 10 µM” value in data set [3] is 91,07%. Moreover, the IC50 in data set [3] (setting [10]) was 1.2 µM; in data set [3] (setting [19]) it was 1.24 µM; in [4] (setting [11]), 2.5 µM; in [4] (setting [12]), 2.53 µM. The “HC inhibition % +DTT 10 µM” value in data set [4] (setting [13]) is listed as 92,52%. For the same compound, the “PS Inhibition % 10 µM” value in data set [4] (setting [14]) is recorded as 86,71%. In addition, the “PS inhibition % 10 μM (single point measurement)” value in data set [4] (setting [15]) was found to be 86.7%. For the same compound, in [5], the “ΔT m°C nDSF” value was 0 °C.

With `Nc1c(/N=N/c2ccc(-c3ccc(/N=N/c4cc(S(=O)(=O)O)c5ccccc5c4N)cc3)cc2)cc(S(=O)(=O)O)c2ccccc12` [Congo red], the IC50 in data set [4] (setting [20]) is 7.5 µM; in data set [6] it was 2.5 µM.

Turning to `COc1cc2c(NC3CCN(C4CCCCC4)CC3)nc(N3CCCN(C(C)C)CC3)nc2cc1OCCCN1CCCCC1` [UNC0646], the inhibition at 10 µM in data set [3] was 91.3%; in [4] (setting [16]) it was 83.2%; in data set [4] (setting [17]), 75.3%; in data set [4] (setting [18]), 75.3%. Further, the IC50 worked out at 0.7 µM in [3] (setting [10]); 0.73 µM in data set [3] (L‐cysteine buffer, read-out: IC50); 1.4 µM in data set [4] (setting [11]); 1.36 µM in data set [4] (setting [20]). For the same compound, in data set [7], the CC50 is 18.6 µM. Further, in data set [5], the “ΔT m°C nDSF” value worked out at 0 °C. The EC50 in [8] is 35.4 µM.

As to `COc1cccc2c1C(=O)c1c(O)c3c(c(O)c1C2=O)C[C@@](O)(C(=O)CO)C[C@@H]3O[C@H]1C[C@H](N)[C@H](O)[C@H](C)O1` [Doxorubicin], the IC50 in data set [3] (IC50 + L‐Cys (μM) (CI in μM)) was found to be 2.3 µM; in data set [3] (IC50 +L-Cys (µM)), 2.26 µM; in data set [4] (IC50 + DTT (μM) (CI in μM)), 3.7 µM; in data set [4] (IC50 +DTT (µM)) it was 3.69 µM.

As for `COc1cc2c(NC3CCN(C(C)C)CC3)nc(N3CCC(F)(F)CC3)nc2cc1OCCCN1CCCC1` [UNC0642], the inhibition at 10 µM in data set [3] stood at 80.2%; in data set [4] (setting [16]) it was 77.5%; in data set [4] (setting [17]) it was 56.9%; in data set [4] (setting [18]), 56.9%. Further, the IC50 came out at 3.3 µM in data set [3] (setting [10]), 3.27 µM in [3] (setting [19]), 6.3 µM in [4] (setting [11]) and 6.27 µM in data set [4] (setting [12]). In addition, in data set [7] (tested concentration range up to 32 μM, ref Zaliani et al., 2022), the CC50 is > 32 µM. In addition, the EC50 in [8] is 16.7 µM.

In the case of `COc1cc2c(NC3CCN(C(C)C)CC3)nc(C3CCCCC3)nc2cc1OCCCN1CCCC1` [UNC0638], the inhibition at 10 µM was 69.9% in [3], 69.5% in [4] (setting [16]), 56.7% in data set [4] (setting [17]) and 56.7% in data set [4] (setting [18]). The IC50 in data set [3] (setting [10]) amounted to 4.8 µM; in data set [3] (setting [19]), 4.77 µM; in data set [4] (setting [11]), 2.8 µM; in data set [4] (setting [12]), 2.84 µM.

As for `COCCn1c2c([n+](Cc3cnccn3)c1C)C(=O)c1ccccc1C2=O` [YM‐155], the inhibition at 10 µM came to 12.4% in data set [3], 79.7% in data set [4] (setting [16]), 74% in data set [4] (setting [17]) and 74% in data set [4] (setting [18]). Moreover, the “loss of the inhibition potency” value in data set [3] is recorded as “more than 50%”. The figures for the IC50 in data set [4] (setting [11]) and in data set [4] (setting [12]) were 1.2 µM and 1.23 µM, respectively. For the same compound, the “cytotoxicity in cell‐based assays” value in data set [9] is given as “no cytotoxicity at tested concentrations”. Further, the “ΔT m°C nDSF” value in [5] is 0.1 °C.

Consider `CC1(C)CCC2=C(O1)C(=O)c1ccccc1C2=O` [alphaLapachone], for which the inhibition at 10 µM worked out at 28.6% in data set [3], 82.8% in [4] (setting [16]), 76% in [4] (setting [17]) and 76% in data set [4] (setting [18]). Besides, the “loss of the inhibition potency” value in data set [3] is on record as “more than 50%”. Moreover, the IC50 amounted to 2.2 µM in data set [4] (setting [11]) and 2.15 µM in [4] (setting [12]).

The values are drawn from paper PMC12079475, “Identification, validation, and characterization of approved and investigational drugs interfering with the SARS‐CoV‐2 endoribonuclease Nsp15” (Protein Science : A Publication of the Protein Society, 2025).
